Consider two molecules from ChEMBL document CHEMBL1641410, “In silico discovery of acylated flavonol monorhamnosides from Eriobotrya japonica as natural, small-molecular weight inhibitors of XIAP BIR3” (Bioorg Med Chem, 2011).

What is called pIC50 is the negative decadic logarithm of the IC50, by convention in mol/L. The low end stands for a high IC50, the high end for a low IC50.

The nature of data set [1]: Chemical stability of the compound after 15 hrs. The data set is classed as physicochemical.
Data set [2] has as its target E3 ubiquitin-protein ligase XIAP (Homo sapiens, UniProt P98170). The data set can be described thus: Displacement of fluorescent SM5F peptide from XIAP linker BIR3 domain after 3 hrs by fluorescence polarization assay. On the technique in general: In fluorescence polarisation assays a small probe gives low polarisation when free and higher when bound to something large.

SMILES strings stand for the structures. pIC50: −log10 of the molar value.

E3 ubiquitin-protein ligase XIAP, sequence (P98170 whole entry, the tested form may be a part): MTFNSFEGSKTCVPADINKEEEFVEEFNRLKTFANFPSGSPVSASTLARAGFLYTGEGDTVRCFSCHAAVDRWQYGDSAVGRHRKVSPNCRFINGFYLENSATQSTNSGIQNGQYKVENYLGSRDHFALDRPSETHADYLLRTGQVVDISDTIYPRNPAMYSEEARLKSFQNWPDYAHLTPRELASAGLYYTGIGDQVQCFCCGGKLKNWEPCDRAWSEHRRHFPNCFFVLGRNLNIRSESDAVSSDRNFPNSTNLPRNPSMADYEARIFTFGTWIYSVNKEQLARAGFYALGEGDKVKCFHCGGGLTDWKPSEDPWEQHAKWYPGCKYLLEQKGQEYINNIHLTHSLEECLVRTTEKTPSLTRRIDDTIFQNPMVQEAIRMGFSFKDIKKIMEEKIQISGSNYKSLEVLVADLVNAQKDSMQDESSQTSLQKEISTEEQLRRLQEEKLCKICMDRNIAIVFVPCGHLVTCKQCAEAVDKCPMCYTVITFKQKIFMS

For the molecule `C[C@@H]1O[C@@H](Oc2c(-c3ccc(O)cc3)oc3cc(O)cc(O)c3c2=O)[C@H](OC(=O)/C=C/c2ccc(O)cc2)[C@H](O)[C@H]1OC(=O)/C=C/c1ccc(O)cc1`, in data set [1], the Stability result is on record as “Stable”. Besides, the pIC50 in data set [2] was < 4.98.

As to `O=c1c(O)c(-c2ccc(O)cc2)oc2cc(O)cc(O)c12` [KAEMPFEROL], in data set [2], the pIC50 is < 4.00.
